# In patent US12607620B2, “Devices and systems for mimicking heart function” (UNIVERSITY OF CENTRAL FLORIDA RESEARCH FOUNDATION, INC., priority 2013, dated 2026):
# How the values were obtained:
# [1] = test system: human cardiomyocytes; assay: Microelectrode array (MEA) recording of electrical activity of patterned human cardiomyocytes; type: cell-based
# Description: The cardiac myocytes were cultured on patterned metal MEAs (planar 10 μm electrodes, 200 μm separation, Multichannel-systems). A 60 channel amplifier (MEA1040, Multichannel-systems) was used to record electrical activity from the spontaneously beating cardiac cells. The same electrodes were also used for stimulation utilizing a stimulus generator (STG 1002, Multichannel systems). The cells were stimulated utilizing 500 mV, 1 ms wide bipolar pulses at 2 Hz. The recording medium was the same as the plating medium with the pH adjusted to 7.3 using HEPES buffer. After a 30 minute incubation period, APs were detected and recorded using built in functions of the Multichannel System software. […] The data was further analyzed using software written using Matlab and Clampfit (Axon instruments). […] The cardiomyocytes used in these experiments were derived from differentiated adult induced pluripotent stem cells purchased from Cellular Dynamics. In FIG. 27 and FIG. 28, the electrical activity of the human cardiomyocytes plated on patterned MEAs was recorded following 12 days in vitro using a Multichannel Systems 60 channel amplifier (MEA 1040, Multichannel Systems). Prior to recording, the cells were allowed to equilibrate for 15 min in the lab atmosphere at 37° C. Temperature was maintained with a TC02 temperature controller (Multichannel Systems). The cells were stimulated using a STG 1002 stimulator (Multichannel Systems) by applying 1 ms wide bipolar square pulses of 500 mV every 500 ms. The recording medium was the same as the plating medium. […] Data are represented as percentage changes compared to the control and expressed as mean +/−SEM. In FIG. 29, electrical activity of the human cardiomyocytes plated on patterned MEAs was recorded following 12 days in vitro (DIV) using a Multichannel Systems 60 channel amplifier (MEA 1040, Multichannel Systems). Prior to recording, the cells were allowed to equilibrate for 15 min in the lab atmosphere at 37° C. Temperature was maintained with a TC02 temperature controller (Multichannel Systems). The cells were stimulated using a STG 1002 stimulator (Multichannel Systems) by applying 1 ms wide bipolar square pulses of 500 mV every 500 ms. The recording medium was the same as the plating medium. Sotalol (Sigma, cat#S0278) was added to the bathing medium in increasing concentrations of 0 μM, 10 μM, 30 μM, 100 μM, and 300 μM.
# [2] = test system: human cardiomyocytes; assay: Cantilever contractile force measurement of human cardiomyocytes (AFM-like laser deflection detection); type: cell-based
# Description: Spontaneous or electrical stimulation-evoked force generation of cardiac myocytes was measured based on optical detection or electrical detection of cantilever-bending. Optical detection of displacement of the end of the cantilever was based on the principle routinely used in atomic force microscopes (AFM) in which a laser beam was reflected from the cantilever to a sensor. The sensor detected the displacement of the laser beam caused by changes in the position of the cantilever. In this optical detection method, an automated electrical shutter was placed in the beam path. This placement minimized the exposure of the cells to the reflected laser light. Electrical detection of the displacement was based on piezoelectric principle that requires special design and materials for the fabrication of the cantilevers. Both detection methods enabled automation and high-throughput screening on myocyte contraction force. Peak contraction force and force-contraction velocity relationships were calculated based on the geometry of the cantilevers and the thickness of cultured cardiac myocytes (determined from immunostaining data). Compounds (such as norepinephrine, epinephrine, ouabain, verapamil, and sotalol) were applied using traditional methods to the medium and possible changes in force or force-velocity relationship were detected and analyzed using standard statistical methods.
# A detection system similar to those used in atomic force microscope (AFM) system was designed for measuring deflection of the cantilevers during contraction. The entire system was assembled around an upright Olympus BX51WI electrophysiology microscope (Olympus Inc., Center Valley, PA). The detection system consisted of a class 2 red photodiode laser (Newport, Irvine, CA), a stimulation chamber, a 4-quadrant photodetector (Noah Industries, Melbourne, FL), and a computer with pClamp 10.0 data acquisition software (Molecular Devices, Union City, CA). The laser and photodetector (PD) were mounted on x-y-z-h translators (Newport, Irvine, CA), which were mounted on the underside of the microscope stage. The stimulation chamber was fabricated from 5 mm thick polycarbonate sheet. An approximately 15 mm×15 mm square chamber was milled out of the sheet and fitted with silver wires (0.015 inch diameter) for field stimulation. The silver wires were mounted parallel to each other with a separation of 15 mm. The bottom of the chamber was sealed using a 22 mm×22 mm glass coverslip. This created a transparent base through which the laser beam could easily pass. The silver wires were connected to an external pulse generator (A-M systems, Sequim, WA) capable of producing field stimulation pulses of varying intensity, frequency, and waveform. Both the pulse generator and PD were connected to an Axon Instruments series 1440 digitizer (Molecular Devices, Union City, CA) which was interfaced with the computer.
# A detection system similar to that used in atomic force microscopy (AFM) was used in these experiments. Prior to recording, the cells were allowed to equilibrate for 15 min in the lab atmosphere at 37° C. Drugs were added cumulatively as follow: 0.1 μM, 0.3 μM, 1.0 μM, and 3.0 μM (norepinephrine); 0.1 μM, 1.0 μM, and 3.0 μM (epinephrine); 0.1 μM, 0.3 μM, 1.0 μM, and 3.0 μM (ouabain); and 0.3 μM, 1.0 μM, and 3.0 μM (verapamil). Washout was performed by rinsing the cells five (5) times with 1 mL of cell culture medium.
# [3] = sotalol 0-300 μM in bathing medium, human cardiomyocytes on patterned MEAs, 12 DIV, change vs control (FIG. 29)
# [4] = norepinephrine concentration range 0.1-3 μM, human cardiac myocytes
# [5] = cardiomyocytes derived from human iPSCs cultured on cantilevers (FIG. 31D)
structure (smiles),measurement,setting,value
CC(C)NCC(O)c1ccc(NS(C)(=O)=O)cc1 (centres unmarked) [sotalol],QT intervals,[1]; [3],significantly increased
same,mISI (minimum interspike interval),[1]; [3],significantly increased
same,conduction velocity,"[1]; sotalol concentrations above 100 μM, human cardiomyocytes on patterned MEAs, 12 DIV",decreased
NC[C@H](O)c1ccc(O)c(O)c1 [norepinephrine],QT interval,[1]; [4],decreased
same,minimal ISI (analogue of QT interval),[1]; [4],decreased
same,spontaneous beating rate,[1]; [4],significantly increased
same,contractile force,[2]; [5],increasing
same,contractile frequency,[2]; [5],increasing
same,peak contraction force,"[2]; norepinephrine concentration range 0.1-3 μM, human cardiac myocytes on cantilevers, 14 days in vitro (FIG. 30A)",increased
COc1ccc(CCN(C)CCC[C@@](C#N)(c2ccc(OC)c(OC)c2)C(C)C)cc1OC [verapamil],peak force versus concentration (μM),[2]; human cardiomyocytes following administration of verapamil (FIG. 12C),decrease
same,contraction peak force,"[2]; verapamil 0.3, 1.0, 3.0 μM cumulative, human cardiomyocytes on cantilevers, 14 days in vitro (FIG. 30D)",concentration dependently decreased
